Measurements: patent US9872875B2, “Component and method for treating viral disease” (Institut Pasteur of Shanghai, Chinese Academy of Sciences, priority 2012, dated 2018)
Read-outs that look alike come from different tables or passages of the source.

How the values were obtained:
P2X5 receptor = P2X5 receptor (Homo sapiens, UniProt Q93086); settings: cited from earlier work
P2X2 receptor = target: T1, P2X2 receptor (Homo sapiens, UniProt Q9UBL9); parameters: key: −: no activity; +: activating concentration >10 μM; ++: activating concentration 1~10 μM; +++: activating concentration <1 μM; settings: cited from earlier work
T1 sequence (Q9UBL9 1-471): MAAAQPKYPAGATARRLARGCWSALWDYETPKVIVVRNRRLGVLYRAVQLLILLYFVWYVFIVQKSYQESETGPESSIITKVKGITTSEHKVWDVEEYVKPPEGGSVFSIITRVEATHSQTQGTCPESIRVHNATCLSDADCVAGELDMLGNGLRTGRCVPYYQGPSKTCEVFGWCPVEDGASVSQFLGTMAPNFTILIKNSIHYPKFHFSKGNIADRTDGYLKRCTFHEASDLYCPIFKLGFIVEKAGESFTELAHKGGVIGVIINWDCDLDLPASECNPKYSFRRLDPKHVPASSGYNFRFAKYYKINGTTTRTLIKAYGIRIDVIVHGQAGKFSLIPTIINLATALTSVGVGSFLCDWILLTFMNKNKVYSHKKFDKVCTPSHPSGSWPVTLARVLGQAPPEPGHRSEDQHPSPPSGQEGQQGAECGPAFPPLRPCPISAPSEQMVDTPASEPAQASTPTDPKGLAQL

P2X2/3 = P2X2/3 (Homo sapiens, UniProt P56373+Q9UBL9); settings: Table 9, antagonists; cited from earlier work
P2X7 receptor = target: T2, P2X7 receptor (Homo sapiens, UniProt Q99572); settings: cited from earlier work
T2 sequence (Q99572 1-595): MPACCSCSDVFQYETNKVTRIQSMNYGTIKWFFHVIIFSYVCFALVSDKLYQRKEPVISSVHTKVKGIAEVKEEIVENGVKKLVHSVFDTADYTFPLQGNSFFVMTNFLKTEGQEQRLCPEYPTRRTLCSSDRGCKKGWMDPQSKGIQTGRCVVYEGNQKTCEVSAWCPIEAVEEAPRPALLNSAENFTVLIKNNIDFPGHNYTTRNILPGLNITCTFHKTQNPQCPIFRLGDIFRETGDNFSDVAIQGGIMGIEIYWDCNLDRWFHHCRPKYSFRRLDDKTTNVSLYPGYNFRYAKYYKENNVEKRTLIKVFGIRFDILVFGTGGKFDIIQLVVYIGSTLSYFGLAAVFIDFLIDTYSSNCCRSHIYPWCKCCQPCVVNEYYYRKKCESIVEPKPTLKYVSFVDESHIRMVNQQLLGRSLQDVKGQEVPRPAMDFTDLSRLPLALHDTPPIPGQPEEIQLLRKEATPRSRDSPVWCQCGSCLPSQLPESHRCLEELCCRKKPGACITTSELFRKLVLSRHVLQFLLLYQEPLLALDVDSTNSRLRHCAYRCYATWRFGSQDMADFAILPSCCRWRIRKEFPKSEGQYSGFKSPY

P2X1 receptor = target: T3, P2X1 receptor (Homo sapiens, UniProt P51575); parameters: key: −: no activity; +: activating concentration >10 μM; ++: activating concentration 1~10 μM; +++: activating concentration <1 μM; settings: cited from earlier work
T3 sequence (P51575 1-399): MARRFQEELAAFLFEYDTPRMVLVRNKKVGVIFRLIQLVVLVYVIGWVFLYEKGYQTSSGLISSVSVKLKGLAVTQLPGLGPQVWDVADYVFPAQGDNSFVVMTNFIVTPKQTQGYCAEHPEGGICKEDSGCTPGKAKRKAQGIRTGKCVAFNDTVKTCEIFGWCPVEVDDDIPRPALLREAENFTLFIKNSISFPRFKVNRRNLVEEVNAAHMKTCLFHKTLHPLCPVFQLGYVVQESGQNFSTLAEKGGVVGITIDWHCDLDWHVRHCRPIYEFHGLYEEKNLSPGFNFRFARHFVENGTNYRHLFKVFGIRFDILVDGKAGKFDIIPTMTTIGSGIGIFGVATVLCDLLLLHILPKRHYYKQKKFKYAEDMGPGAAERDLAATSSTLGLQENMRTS

EV71 [1] = test: Effects of other antagonists and agonists on EV71 (Table 9); assay type: cell-based, Enterovirus 71; parameters: key: “NO” indicates there is negative
P2X3 receptor = target: T4, P2X3 receptor (Homo sapiens, UniProt P56373); settings: cited from earlier work
T4 sequence (P56373 1-397): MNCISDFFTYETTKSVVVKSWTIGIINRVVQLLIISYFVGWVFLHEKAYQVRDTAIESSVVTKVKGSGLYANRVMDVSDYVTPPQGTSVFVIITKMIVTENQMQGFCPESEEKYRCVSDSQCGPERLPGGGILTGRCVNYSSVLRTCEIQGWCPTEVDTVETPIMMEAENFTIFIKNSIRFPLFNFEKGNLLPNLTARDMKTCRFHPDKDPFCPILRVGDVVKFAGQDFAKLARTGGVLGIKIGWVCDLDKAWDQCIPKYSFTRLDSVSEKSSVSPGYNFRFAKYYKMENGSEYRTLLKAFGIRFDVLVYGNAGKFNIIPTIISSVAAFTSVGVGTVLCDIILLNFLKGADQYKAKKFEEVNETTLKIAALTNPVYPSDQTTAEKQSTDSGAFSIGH

EV71 [2] = test: Inhibition of EV71 replication in RD cells at 0.1, 1, 10 and 100 μM (CPE, crystal violet); assay type: cell-based, Enterovirus 71; parameters: key to Inhibition of EV71 replication: −: no activity
Experimental: Inhibitory effect of each P2X receptor antagonists and agonists on EV71 replication was measured at 0.1, 1, 10, and 100 μM. Specific procedures refer to “1” of Example 1. after infection, however, cells need to be incubated for 3˜4 days, stained with crystal violet, and observed under optical microscope to determine whether or not CPE (cytopathic effect) was present. In addition, the effect of compounds at each concentration on cytotoxicity to RD cells was determined. After culturing RD cells in various concentrations of compounds for 3˜4 days, stained with crystal violet, and observed under optical microscope to observe whether or not cell layer was damaged. Compounds capable of protecting cells from infection without damage of healthy cell layer can inhibit EV71 replication in RD cells.

P2X4 receptor = target: T5, P2X4 receptor (Homo sapiens, UniProt Q99571); settings: cited from earlier work
T5 sequence (Q99571 1-388): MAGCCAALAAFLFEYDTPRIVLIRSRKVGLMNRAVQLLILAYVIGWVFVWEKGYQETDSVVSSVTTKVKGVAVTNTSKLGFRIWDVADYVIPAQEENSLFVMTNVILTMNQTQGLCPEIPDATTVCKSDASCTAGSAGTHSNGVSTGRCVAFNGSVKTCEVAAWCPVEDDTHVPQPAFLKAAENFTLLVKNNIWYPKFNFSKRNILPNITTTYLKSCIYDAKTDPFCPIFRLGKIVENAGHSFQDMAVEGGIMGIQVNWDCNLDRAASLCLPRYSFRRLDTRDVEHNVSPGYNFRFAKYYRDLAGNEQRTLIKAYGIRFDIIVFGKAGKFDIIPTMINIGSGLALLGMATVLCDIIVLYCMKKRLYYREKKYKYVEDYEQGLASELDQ

EV71 FY-23 = test: EV71 infection of adult rhesus monkeys: blood viral load and body temperature; assay type: in vivo, rhesus monkey (Macaca); settings: 50 mg/kg suramin i.v.
Description: 10 adult rhesus monkeys, which were detected negative for EV71 antibody (rhesus monkey (Macaca), Source: Institute of Medical Biology, Chinese Academy of Medical Sciences, Experimental animal use license number: SYXK (Yunnan) 2010-0009, Certification unit: Yunnan Provincial Science and Technology Agency), were randomly divided into two groups, namely: five in control group (aged about 4 years old, weighing about 5.3 kg, injected with physiological saline), 5 in treatment group (aged about 4.6 years old, weighs about 5.44 kg, injected with 50 mg/kg suramin). Multiple intravenous injections of suramin (50 mg/kg) were used. […] Specific experimental procedure is as follows:
Then, drug was administered intravenously at a dose (50 mg/kg suramin or physiological saline).
Intravenous viral challenge was performed with 4.5 lgCCID50 EV71 FY-23.
Whole blood RNA extraction: obtained 0.2 ml blood, added 0.8 ml TRNzol-A^+, after mixing, placed the well at room temperature for 10 min; added 0.2 ml chloroform, tightened cover lid, vigorously shaking for 15 sec, placed at room temperature for 5 min, centrifuged at 12500 rpm, 4° C., 20 min, 0.4 ml of aqueous phase was transferred to another fresh tube, equal volume of isopropanol was added, mixed, placed at room temperature for 30 min; centrifuged at 12500 rpm, 4° C., 20 min, supernatant was discarded, 1 ml of 75% ethanol was added to wash precipitates, centrifuged at 12500 rpm, 4° C., 30 min. Supernatant discarded, placed at room temperature for 30 min, RNA dried, 20 μl RNase-free ddH2O added, and RNA fully dissolved. Viral load was determined by measurement method as follows:
1) Standard dilutions: obtaining standards (performed according to TaKaRa MiniBEST Viral RNA/DNA extraction Kit Ver 3.0 instructions), 10 μl standards were obtained, 10-fold serial dilutions 10^6, 10^5, 10^4, 10^3, 10^2, 10^1, 10^0.
2) Primer sequences (Taqman probe method):
3) Preparing RT-PCR reaction solution (reaction solutions were prepared on ice):
4) Performing Real Time One Step RT-PCR.

P2X5 receptor, sequence (Q93086 whole entry): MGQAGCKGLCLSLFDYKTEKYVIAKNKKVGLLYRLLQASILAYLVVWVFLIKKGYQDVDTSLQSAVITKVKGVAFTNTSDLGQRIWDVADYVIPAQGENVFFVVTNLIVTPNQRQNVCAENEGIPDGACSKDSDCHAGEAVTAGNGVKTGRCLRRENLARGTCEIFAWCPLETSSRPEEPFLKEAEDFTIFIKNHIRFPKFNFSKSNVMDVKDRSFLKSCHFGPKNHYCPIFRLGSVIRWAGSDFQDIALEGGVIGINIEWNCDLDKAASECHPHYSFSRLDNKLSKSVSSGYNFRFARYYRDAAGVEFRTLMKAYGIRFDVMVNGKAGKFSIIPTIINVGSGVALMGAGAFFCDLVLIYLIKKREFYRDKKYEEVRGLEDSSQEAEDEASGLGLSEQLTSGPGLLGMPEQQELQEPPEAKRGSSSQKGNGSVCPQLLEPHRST

Compound	P2X receptors 2 (P2X2 receptor; Table 8, antagonists)	Heteromultimer (P2X2/3)	P2X receptors 7 (P2X7 receptor; Table 8, antagonists)	P2X receptors 1 (P2X1 receptor; Table 8, antagonists)	EV71 Log10 reduction (EV71 [1])	P2X receptors 3 (P2X3 receptor; Table 8, antagonists)	P2X receptors 3 (P2X3 receptor; Table 9, antagonists)	inhibition of EV71 replication (statement in words) (EV71 [2])	Inhibition of EV71 replication (EV71 [2]; Table 8, antagonists)	P2X receptors 5 (P2X5 receptor; Table 8, agonists)	P2X receptors 5 (P2X5 receptor; Table 9, agonists)	P2X receptors 2 (P2X2 receptor; Table 8, agonists)	P2X receptors 1 (P2X1 receptor; Table 8, agonists)	P2X receptors 4 (P2X4 receptor; Table 8, agonists)	P2X receptors 3 (P2X3 receptor; Table 8, agonists)	Inhibition of EV71 replication (EV71 [2]; Table 8, agonists)	other results
trinitrophenol-ATP [TNP-ATP]	+ (+: inhibitory concentration >300 nM)	✓ ✓ ✓ (✓ ✓ ✓ activating concentration <10 nM)	+ (+: inhibitory concentration >300 nM)	+++ (+++: inhibitory concentration <10 nM)	NO	+++ (+++: inhibitory concentration <10 nM)	✓ ✓ ✓ (✓ ✓ ✓ activating concentration <10 nM)	can also inhibit EV71 replication	+ (+: inhibitory concentration >300 nM)								P2X receptors 5 (P2X5 receptor; Table 8, antagonists): + (+: inhibitory concentration >300 nM); P2X receptors 1 (P2X1 receptor; Table 9, antagonists): ✓ ✓ ✓ (✓ ✓ ✓ activating concentration <10 nM)
COc1cc(Cc2cnc(N)nc2N)c(C(C)C)cc1OC [RO-3]		✓ P2X2/3 (✓ activating concentration >300 nM)			NO		✓ ✓ (✓ ✓ activating concentration 10 nM-300 nM)										
bzATP					NO					++ (++: activating concentration 1~10 μM)	✓ ✓ (✓ ✓ activating concentration 1-10 μM)	++ (++: activating concentration 1~10 μM)	+++ (+++: activating concentration <1 μM)	+++ (+++: activating concentration <1 μM)	+ (+: activating concentration >10 μM)	−	P2X receptors 2 (P2X2 receptor; Table 9, agonists): ✓ ✓ (✓ ✓ activating concentration 1-10 μM); P2X receptors 7 (P2X7 receptor; Table 8, agonists): ++ (++: activating concentration 1~10 μM); P2X receptors 7 (P2X7 receptor; Table 9, agonists): ✓ ✓ ✓ (✓ ✓ ✓ activating concentration <1 μM); P2X receptors 1 (P2X1 receptor; Table 9, agonists): ✓ ✓ ✓ (✓ ✓ ✓ activating concentration <1 μM); P2X receptors 4 (P2X4 receptor; Table 9, agonists): ✓ ✓ ✓ (✓ ✓ ✓ activating concentration <1 μM); P2X receptors 3 (P2X3 receptor; Table 9, agonists): ✓ (✓ activating concentration >10 μM)
Cc1ccc(C(=O)Nc2ccc(S(=O)(=O)O)c3cc(S(=O)(=O)O)cc(S(=O)(=O)O)c23)cc1NC(=O)c1cccc(NC(=O)Nc2cccc(C(=O)Nc3cc(C(=O)Nc4ccc(S(=O)(=O)O)c5cc(S(=O)(=O)O)cc(S(=O)(=O)O)c45)ccc3C)c2)c1 [suramin, Suramin]																	viral load compared with control group (EV71 FY-23; rhesus monkeys): significantly lower; blood viral load of drug treatment group (average) (EV71 FY-23; 4th, 7th and 13th days after viral challenge, control peak 1-1.5×10^3 copies/ml): 1.5×10^1 copies/ml; body temperature after infection (EV71 FY-23; control group showed a rise 1 day after infection): essentially maintained body temperatures within normal range
O=C(Nc1ccc(C(=O)Nc2ccc(C(=O)Nc3ccc(S(=O)(=O)O)c4cc(S(=O)(=O)O)cc(S(=O)(=O)O)c34)cc2)cc1)Nc1ccc(C(=O)Nc2ccc(C(=O)Nc3ccc(S(=O)(=O)O)c4cc(S(=O)(=O)O)cc(S(=O)(=O)O)c34)cc2)cc1 [NF279, 8,8′-(carbonylbis(imino-4,1-phenylenecarbonylimino-4,1-phenylenecarbonylimino))bis(1,3,5-naphthalenetrisulfonic acid)]	+ (+: inhibitory concentration >300 nM)		+ (+: inhibitory concentration >300 nM)	+++ (+++: inhibitory concentration <10 nM)		+ (+: inhibitory concentration >300 nM)		can also inhibit EV71 replication	+ (+: inhibitory concentration >300 nM)								P2X receptors 4 (P2X4 receptor; Table 8, antagonists): −
O=c1ccn([C@@H]2O[C@H](COP(=O)(O)OP(=O)(O)OP(=O)(O)O)[C@@H](O)[C@H]2O)c(=O)[nH]1 [UTP, uridine triphosphate]					NO					+ (+: activating concentration >10 μM)	✓ (✓ activating concentration >10 μM)	−	−	−	−	−	
